Measurements as given in patent publication US6627604B2, “Memno peptides, process for their preparation and use thereof” (priority 2000, dated 2003).
Converted amounts (≈) assume the structure as drawn. Residues, ends and D or L forms follow the SMILES beside them. *: point of attachment. X1 = CC1CCC2C(C)(C)C(O)CCC2(C)C12Cc1c(O)cc3c(c1O2)CN(C(CC[S+](C)[O-])C(=O)*)C3=O

What was measured:
[1] = biological target: T1, SERCA2 (Canis lupus familiaris, UniProt O46674); assay: Colorimetric Ca2+ ATPase (SERCA2) activation test in dog heart microsomes; type: biochemical; conditions: Ca2+ ATPase activity in dog heart microsomes, phosphate release at 620 nm
T1 construct: activity of the Ca^2+ ATPase in dog heart microsomes; from tissue; host or cells: dog heart microsomes
T1 sequence (O46674 whole entry): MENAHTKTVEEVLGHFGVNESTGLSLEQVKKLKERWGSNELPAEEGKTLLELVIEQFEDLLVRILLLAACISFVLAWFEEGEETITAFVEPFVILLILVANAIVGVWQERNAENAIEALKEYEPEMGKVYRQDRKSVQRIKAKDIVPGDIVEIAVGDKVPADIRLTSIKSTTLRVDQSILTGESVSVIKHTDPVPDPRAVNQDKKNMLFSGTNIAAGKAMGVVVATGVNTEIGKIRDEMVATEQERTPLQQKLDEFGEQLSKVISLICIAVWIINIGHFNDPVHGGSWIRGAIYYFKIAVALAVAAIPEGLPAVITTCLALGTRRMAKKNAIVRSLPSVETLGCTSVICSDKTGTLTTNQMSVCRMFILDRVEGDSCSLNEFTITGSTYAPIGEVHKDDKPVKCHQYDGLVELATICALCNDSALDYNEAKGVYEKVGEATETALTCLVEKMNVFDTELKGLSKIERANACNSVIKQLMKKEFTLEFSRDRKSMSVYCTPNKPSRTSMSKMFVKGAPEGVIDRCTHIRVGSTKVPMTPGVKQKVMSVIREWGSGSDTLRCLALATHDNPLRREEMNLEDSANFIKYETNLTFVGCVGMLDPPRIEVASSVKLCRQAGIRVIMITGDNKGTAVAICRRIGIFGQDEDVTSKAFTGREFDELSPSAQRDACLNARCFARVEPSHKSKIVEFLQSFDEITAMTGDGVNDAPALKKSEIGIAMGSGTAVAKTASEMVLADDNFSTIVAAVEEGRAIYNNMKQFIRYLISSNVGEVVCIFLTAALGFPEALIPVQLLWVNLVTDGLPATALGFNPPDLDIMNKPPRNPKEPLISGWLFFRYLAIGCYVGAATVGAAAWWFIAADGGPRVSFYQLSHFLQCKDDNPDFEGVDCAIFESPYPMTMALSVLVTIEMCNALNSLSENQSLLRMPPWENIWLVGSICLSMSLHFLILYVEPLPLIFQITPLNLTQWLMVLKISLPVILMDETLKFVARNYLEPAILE
Description: For the detection of the activators of SERCA2 which imitate the phosphorylation effect of PLB, a […] test may be run which determines the activity of the Ca^2+ ATPase in dog heart microsomes in the presence of test substances. The test may be carried out in 96-well microtiter plates. The enzymatic release of inorganic phosphate from ATP, which forms a blue colored complex with ammonium molybdate which can be measured at 620 nm in a spectrophotometer, may be measured.

[2] = tested on: Streptococcus pyogenes VR3; assay: Minimum inhibitory concentration; type: cell-based; conditions: resistance against: Vancomycin
[3] = biological target: glucose-6-phosphate translocase (G-6-P—TL) (Homo sapiens, UniProt O43826); assay: Inhibition of glucose-6-phosphate translocase; type: biochemical
Chain of glucose-6-phosphate translocase (G-6-P—TL) (O43826 whole entry, species assumed): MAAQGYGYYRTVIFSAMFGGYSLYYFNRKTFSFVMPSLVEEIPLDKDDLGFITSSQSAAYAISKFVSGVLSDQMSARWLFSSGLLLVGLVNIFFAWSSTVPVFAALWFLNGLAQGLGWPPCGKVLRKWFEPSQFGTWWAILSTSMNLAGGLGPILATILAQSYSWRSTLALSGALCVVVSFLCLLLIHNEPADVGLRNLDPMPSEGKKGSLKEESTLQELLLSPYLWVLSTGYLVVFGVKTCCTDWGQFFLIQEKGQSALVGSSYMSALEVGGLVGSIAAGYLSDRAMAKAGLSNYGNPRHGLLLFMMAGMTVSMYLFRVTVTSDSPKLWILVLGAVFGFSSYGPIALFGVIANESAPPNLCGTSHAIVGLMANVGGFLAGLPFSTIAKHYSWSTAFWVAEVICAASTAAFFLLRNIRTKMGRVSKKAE

[4] = biological target: G-6-P phosphatase (Homo sapiens, UniProt P35575); assay: Inhibition of G-6-P phosphatase; type: biochemical
Chain of G-6-P phosphatase (P35575 whole entry): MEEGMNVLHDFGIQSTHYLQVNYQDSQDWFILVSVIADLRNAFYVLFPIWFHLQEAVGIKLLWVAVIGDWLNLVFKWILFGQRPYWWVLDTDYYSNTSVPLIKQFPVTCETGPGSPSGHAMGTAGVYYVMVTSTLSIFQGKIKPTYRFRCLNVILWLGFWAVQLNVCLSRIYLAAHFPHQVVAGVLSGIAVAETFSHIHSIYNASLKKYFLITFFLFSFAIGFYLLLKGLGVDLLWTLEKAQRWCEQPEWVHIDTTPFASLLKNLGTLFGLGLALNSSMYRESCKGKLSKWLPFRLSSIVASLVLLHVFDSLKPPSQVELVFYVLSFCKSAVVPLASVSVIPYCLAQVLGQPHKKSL

[5] = tested on: Staphylococcus aureus SG 511
[6] = tested on: Staphylococcus aureus 285
[7] = tested on: Staphylococcus aureus 503
[8] = tested on: Staphylococcus aureus FH 1982
[9] = tested on: Staphylococcus aureus 701E
[10] = tested on: Staphylococcus aureus 707E
[11] = tested on: Staphylococcus aureus 9 Tüb
[12] = tested on: Staph. epidermidis ZH 2c
[13] = tested on: Staph. epidermidis 763
[14] = tested on: Staph. epidermidis 5747IIW
[15] = tested on: Staph. epidermidis 291
[16] = tested on: Staph. epidermidis 799
[17] = tested on: Enterococcus faecium Md8B
[18] = tested on: Enterococcus faecium VR1
[19] = tested on: Enterococcus faecium VR2
[20] = tested on: Streptococcus pyogenes 308A
[21] = tested on: Streptococcus pyogenes 77A

CC(C)CC(NC(=O)C1CCCN1C(=O)C(CCC(N)=O)NC(=O)C(Cc1c[nH]cn1)NC(=O)C1CCCN1C(=O)C(CCC(N)=O)NC(=O)C(Cc1cnc[nH]1)NC(=O)C(CC[S+](C)[O-])N1Cc2c(cc(O)c3c2OC2(C3)C(C)CCC3C(C)(C)C(O)CCC32C)C1=O)C(=O)N1CCCC1C(=O)N1CCCC1C(=O)O (stereo not drawn) [memno peptide A] (X1-HQPHQPLPP-OH; configuration not given here)
activates SERCA2 in concentrations from [1]: ≥ 12.5 µM | MIC [2]: >64 µg/mL | inhibitory action on glucose-6-phosphate translocase (G-6-P—TL) [3]: exhibits selective activities against G-6-P—TL | inhibition of the coenzyme G-6-P phosphatase [4]: does not inhibit | MIC [5]: 16 µg/mL (≈ 10.2 µM) | MIC [6]: 16 µg/mL (≈ 10.2 µM) | MIC [7]: 16 µg/mL (≈ 10.2 µM) | MIC [8]: 16 µg/mL (≈ 10.2 µM) | MIC [9]: 16 µg/mL (≈ 10.2 µM) | MIC [10]: 16 µg/mL (≈ 10.2 µM) | MIC [11]: 16 µg/mL (≈ 10.2 µM) | MIC [12]: 16 µg/mL (≈ 10.2 µM) | MIC [13]: >16 µg/mL | MIC [14]: 32 µg/mL (≈ 20.4 µM) | MIC [15]: 8 µg/mL (≈ 5.11 µM) | MIC [16]: 8 µg/mL (≈ 5.11 µM) | MIC [17]: 8 µg/mL (≈ 5.11 µM) | MIC [18]: >64 µg/mL | MIC [19]: >64 µg/mL | MIC [20]: 8 µg/mL (≈ 5.11 µM) | MIC [21]: 4 µg/mL (≈ 2.55 µM)
